Values joined by “and” are separate entries in the source; they are usually repeats but may differ in a detail not shown here. Identical values can stand only once.

The nature of data set [1]: Dissolution test of poorly-soluble substances using distilled water. In kind it is physicochemical.
Data set [2] is described as follows: Dissolution test of poorly-soluble substances using 2nd fluid for disintegration test (pH 6.8) of the Japanese Pharmacopoeia. The class given is physicochemical.
Procedure: From initiation of the test, the mixed solution was stirred with a stirrer having a length of 15 mm. The rotation number of the stirrer was 120 rpm, and all of the tests were conducted in a thermostat at 37±0.5° C. Two types of test solutions, namely, distilled water and 2nd fluid for disintegration test (pH 6.8) of the Japanese Pharmacopoeia were used. As such 2nd fluid for disintegration test of the Japanese Pharmacopoeia, a solution prepared by diluting the 10-fold concentration solution of Kanto Kagaku Co., Ltd. with distilled water was used.
A comparative test was carried out in the same manner as that described above with the exception that a poorly-soluble substance or the like was used in an amount equal to that of a substance with improved aqueous solubility, instead of the substance with improved aqueous solubility.
1 mL of the solution was sampled in an Eppendorf centrifuge tube, 1, 3, 10, 30, 60, 180 and 360 minutes after initiation of the test. The thus sampled solution was centrifuged at 12,000 rpm for 5 minutes. […] In the case of the comparative test, the poorly-soluble substance or the like, which had not been dissolved in the solution, was removed. An aliquot of this supernatant was immediately frozen. The frozen sample was freeze-dried, and it was then used as a sample in the measurement of the amount of the substance with improved aqueous solubility, which had been dissolved in the test solution. The dissolved poorly-soluble substance was measured mainly using a dual wavelength absorption photometer.
[3] abbreviates: 2nd fluid for disintegration test, elution time 3 min.
The mark [4] stands for this setting: 2nd fluid for disintegration test, elution time 10 min.
The mark [5] stands for this setting: 2nd fluid for disintegration test, elution time 30 min.
Setting [6] is: 2nd fluid for disintegration test, elution time 120 min.
Where [7] appears, read: 2nd fluid for disintegration test, elution time 360 min.
The mark [8] stands for this setting: after dissolution test for 360 minutes, distilled water, 37±0.5° C.
[9] abbreviates: 2nd fluid for disintegration test, elution time 1 min.
Setting [10] is: after dissolution test for 360 minutes, Second disintegration test medium (pH 6.8), 37±0.5° C.

Consider `CCn1cc(C(=O)O)c(=O)c2cc(F)c(N3CCNCC3)cc21` [compound 27, Norfloxacin], for which the Dissolved amount is 455.9 µg/mL in data set [1] (water, elution time 3 min); 523.1 µg/mL in data set [1] (water, elution time 10 min); 492.3 µg/mL in data set [1] (water, elution time 30 min); 470.7 µg/mL in data set [1] (water, elution time 120 min); 395.5 µg/mL in data set [1] (water, elution time 360 min); 688.7 µg/mL in data set [2] (setting [3]). Also, the Dissolved amount in data set [2] (setting [4]) worked out at 767.1 µg/mL; in data set [2] (setting [5]) it was 744.1 µg/mL; in data set [2] (setting [6]), 721.6 µg/mL; in data set [2] (setting [7]) it was 694.7 µg/mL.
Take `CC(C)NCC(O)COc1cccc2[nH]ccc12` (centres unmarked) [compound 42, Pindolol]: the Dissolved amount is 53.1 µg/mL in data set [1] (Pindolol, water, elution time 3 min); 71.1 µg/mL in data set [1] (Pindolol, water, elution time 10 min); 77.8 µg/mL in data set [1] (Pindolol, water, elution time 30 min); 93.5 µg/mL in data set [1] (Pindolol, water, elution time 120 min); 93.6 µg/mL in data set [1] (Pindolol, water, elution time 360 min); 1394.9 µg/mL in data set [2] (Pindolol, 2nd fluid for disintegration test, elution time 3 min). Also, the Dissolved amount was found to be 2837.9 µg/mL in data set [2] (Pindolol, 2nd fluid for disintegration test, elution time 10 min); 3212.1 µg/mL in data set [2] (Pindolol, 2nd fluid for disintegration test, elution time 30 min); 3624.7 µg/mL in data set [2] (Pindolol, 2nd fluid for disintegration test, elution time 120 min).
As to `CC(=O)O[C@]1(C(C)=O)CC[C@H]2[C@@H]3C=C(Cl)C4=CC(=O)CC[C@]4(C)[C@H]3CC[C@@]21C` [Comparative Example 3-2, Chlormadinone acetate], the Dissolved amount came out at 1.2 µg/mL in data set [1] (setting [8]); 0.6 µg/mL in data set [1] (water, elution time 1 min); 0.6 µg/mL in data set [1] (water, elution time 3 min); 0.7 µg/mL in data set [1] (water, elution time 10 min); 0.9 µg/mL in data set [1] (water, elution time 30 min); 1.0 µg/mL in data set [1] (water, elution time 60 min). The Dissolved amount was determined as 1.1 µg/mL in data set [1] (water, elution time 180 min); 1.2 µg/mL in data set [1] (water, elution time 360 min); 1.4 µg/mL in data set [2] (setting [9]); 1.4 µg/mL in data set [2] (setting [3]); 1.8 µg/mL in data set [2] (setting [4]); 1.0 µg/mL in data set [2] (setting [5]). The Dissolved amount in data set [2] (2nd fluid for disintegration test, elution time 60 min) was 1.0 µg/mL; in data set [2] (2nd fluid for disintegration test, elution time 180 min), 2.3 µg/mL; in data set [2] (setting [7]), 2.8 µg/mL; in data set [2] (setting [10]), 2.8 µg/mL.
Take `Nc1ncnc2nc[nH]c12` [compound 45, Adenine]: the Dissolved amount in data set [1] (Adenine, water, elution time 3 min) was determined as 1478.0 µg/mL; in data set [1] (Adenine, water, elution time 10 min), 1557.3 µg/mL; in data set [1] (Adenine, water, elution time 30 min), 1646.6 µg/mL; in data set [1] (Adenine, water, elution time 360 min), 1696.4 µg/mL; in data set [2] (Adenine, 2nd fluid for disintegration test, elution time 3 min), 1752.2 µg/mL; in data set [2] (Adenine, 2nd fluid for disintegration test, elution time 10 min), 2028.0 µg/mL. Further, the Dissolved amount is 2001.9 µg/mL in data set [2] (Adenine, 2nd fluid for disintegration test, elution time 30 min); 2001.4 µg/mL in data set [2] (Adenine, 2nd fluid for disintegration test, elution time 120 min); 1876.8 µg/mL in data set [2] (Adenine, 2nd fluid for disintegration test, elution time 360 min).
On to `CC1(C)[C@@H](O[C@H]2O[C@H](C(=O)O)[C@@H](O)[C@H](O)[C@H]2O[C@@H]2O[C@H](C(=O)O)[C@@H](O)[C@H](O)[C@H]2O)CC[C@]2(C)[C@H]3C(=O)C=C4[C@@H]5C[C@@](C)(C(=O)O)CC[C@]5(C)CC[C@@]4(C)[C@]3(C)CC[C@@H]12` [Comparative Example 16, Ammonium Glycyrrhizinate], for which the Dissolved amount amounted to 2668.0 µg/mL in data set [1] (water, elution time 1 min); 4621.4 µg/mL in data set [1] (water, elution time 3 min); 6792.2 µg/mL in data set [1] (water, elution time 30 min); 7374.5 µg/mL in data set [1] (water, elution time 60 min); 8826.1 µg/mL in data set [1] (water, elution time 180 min); 8948.1 µg/mL in data set [1] (water, elution time 360 min). Besides, the Dissolved amount is 5113.7 µg/mL in data set [2] (setting [9]), 7012.3 µg/mL in data set [2] (setting [3]) and 9096.3 µg/mL in data set [2] (setting [4]).
For `CCCCCCC(=O)O[C@H]1CC[C@H]2[C@@H]3CCc4cc(O)ccc4[C@H]3CC[C@]12C` [compound 44, Estradiol Enanthate], the Dissolved amount in data set [1] (Estradiol Enanthate, water, elution time 3 min) was determined as 1.6 µg/mL; in data set [1] (Estradiol Enanthate, water, elution time 10 min) it was 1.4 µg/mL; in data set [1] (Estradiol Enanthate, water, elution time 30 min) it was 1.8 µg/mL; in data set [1] (Estradiol Enanthate, water, elution time 120 min), 1.6 µg/mL; in data set [1] (Estradiol Enanthate, water, elution time 360 min), 1.3 µg/mL; in data set [2] (Estradiol Enanthate, 2nd fluid for disintegration test, elution time 3 min), 7.9 µg/mL. The Dissolved amount was found to be 7.0 µg/mL in data set [2] (Estradiol Enanthate, 2nd fluid for disintegration test, elution time 30 min); 19.0 µg/mL in data set [2] (Estradiol Enanthate, 2nd fluid for disintegration test, elution time 120 min); 10.9 µg/mL in data set [2] (Estradiol Enanthate, 2nd fluid for disintegration test, elution time 360 min).
Take `COc1ccc2c(c1)c(CC(=O)O)c(C)n2C(=O)c1ccc(Cl)cc1` [compound 20, Indomethacin]: the Dissolved amount in data set [1] (water, elution time 3 min) was 7.8 µg/mL; in data set [1] (water, elution time 10 min), 7.9 µg/mL; in data set [1] (water, elution time 30 min) it was 8.0 µg/mL; in data set [1] (water, elution time 120 min) it was 8.5 µg/mL; in data set [1] (water, elution time 360 min) it was 8.2 µg/mL; in data set [2] (setting [3]), 627.9 µg/mL. For the same compound, the Dissolved amount in data set [2] (setting [4]) was determined as 693.7 µg/mL; in data set [2] (setting [5]), 821.8 µg/mL; in data set [2] (setting [6]) it was 928.5 µg/mL; in data set [2] (setting [7]), 1114.4 µg/mL.
In the case of `O=[N+]([O-])O[C@H]1CO[C@H]2[C@@H]1OC[C@H]2O[N+](=O)[O-]` [compound 30, Isosorbide Dinitrate], the Dissolved amount in data set [1] (water, elution time 30 min) worked out at 3490.4 µg/mL; in data set [1] (water, elution time 120 min), 3516.8 µg/mL; in data set [2] (setting [4]), 7154.4 µg/mL; in data set [2] (setting [5]) it was 7134.1 µg/mL; in data set [2] (setting [7]), 7148.8 µg/mL.
As for `COc1ccc(Cl)cc1C(=O)NCCc1ccc(S(=O)(=O)NC(=O)NC2CCCCC2)cc1` [compound 11, Glibenclamide], the Dissolved amount in data set [1] (setting [8]) was determined as 6.4 µg/mL; in data set [2] (setting [10]), 8.0 µg/mL.
In the case of `COc1ccccc1OCCNCC(O)COc1cccc2[nH]c3ccccc3c12` (centres unmarked) [compound 49, Carvedilol], the Dissolved amount in data set [1] (Carvedilol, water, elution time 3 min) is 5.2 µg/mL; in data set [1] (Carvedilol, water, elution time 10 min), 8.3 µg/mL; in data set [1] (Carvedilol, water, elution time 30 min), 10.0 µg/mL; in data set [1] (Carvedilol, water, elution time 120 min), 15.0 µg/mL; in data set [1] (Carvedilol, water, elution time 360 min) it was 16.0 µg/mL; in data set [2] (Carvedilol, 2nd fluid for disintegration test, elution time 3 min), 13.9 µg/mL. Besides, the Dissolved amount amounted to 26.3 µg/mL in data set [2] (Carvedilol, 2nd fluid for disintegration test, elution time 10 min); 48.6 µg/mL in data set [2] (Carvedilol, 2nd fluid for disintegration test, elution time 30 min); 44.1 µg/mL in data set [2] (Carvedilol, 2nd fluid for disintegration test, elution time 120 min); 45.1 µg/mL in data set [2] (Carvedilol, 2nd fluid for disintegration test, elution time 360 min).
As for `CCS(=O)(=O)CCn1c([N+](=O)[O-])cnc1C` [compound 25, Tinidazole], the Dissolved amount in data set [1] (water, elution time 3 min) came to 2973.2 µg/mL; in data set [1] (water, elution time 10 min), 3880.0 µg/mL; in data set [1] (water, elution time 30 min) it was 4558.1 µg/mL; in data set [1] (water, elution time 120 min), 6034.2 µg/mL; in data set [1] (water, elution time 360 min), 6207.6 µg/mL; in data set [2] (setting [3]), 4613.3 µg/mL. In addition, the Dissolved amount in data set [2] (setting [4]) amounted to 5425.9 µg/mL; in data set [2] (setting [5]) it was 5825.0 µg/mL; in data set [2] (setting [6]) it was 7003.0 µg/mL; in data set [2] (setting [7]), 6133.3 µg/mL.
As for `CCN(CC)CCNC(=O)c1cc(Cl)c(N)cc1OC` [compound 33, Metoclopramide], the Dissolved amount in data set [1] (Metoclopramide, water, elution time 3 min) was 6159.5 µg/mL; in data set [1] (Metoclopramide, water, elution time 10 min) it was 5382.3 µg/mL; in data set [1] (Metoclopramide, water, elution time 30 min), 5437.6 µg/mL; in data set [1] (Metoclopramide, water, elution time 120 min) it was 5478.0 µg/mL; in data set [1] (Metoclopramide, water, elution time 360 min), 5654.9 µg/mL; in data set [2] (Metoclopramide, 2nd fluid for disintegration test, elution time 3 min), 12420.8 µg/mL. Besides, the Dissolved amount in data set [2] (Metoclopramide, 2nd fluid for disintegration test, elution time 30 min) was determined as 13285.5 µg/mL; in data set [2] (Metoclopramide, 2nd fluid for disintegration test, elution time 360 min) it was 13564.1 µg/mL.
Take `COc1cc(Cc2cnc(N)nc2N)cc(OC)c1OC` [compound 13, Trimethoprim]: the Dissolved amount came out at 656.3 µg/mL in data set [1] (setting [8]) and 1321.9 µg/mL in data set [2] (setting [10]).
Turning to `C[C@]12C=CC(=O)C=C1CC[C@@H]1[C@@H]2[C@@H](O)C[C@@]2(C)[C@H]1CC[C@]2(O)C(=O)CO` [compound 41, Prednisolone], the Dissolved amount in data set [1] (Prednisolone, water, elution time 10 min) turned out to be 336.3 µg/mL; in data set [1] (Prednisolone, water, elution time 30 min), 315.8 µg/mL; in data set [1] (Prednisolone, water, elution time 120 min), 268.2 µg/mL; in data set [1] (Prednisolone, water, elution time 360 min), 266.3 µg/mL; in data set [2] (Prednisolone, 2nd fluid for disintegration test, elution time 3 min), 369.1 µg/mL; in data set [2] (Prednisolone, 2nd fluid for disintegration test, elution time 10 min), 382.4 µg/mL. In addition, the Dissolved amount in data set [2] (Prednisolone, 2nd fluid for disintegration test, elution time 30 min) turned out to be 310.8 µg/mL; in data set [2] (Prednisolone, 2nd fluid for disintegration test, elution time 120 min) it was 265.5 µg/mL; in data set [2] (Prednisolone, 2nd fluid for disintegration test, elution time 360 min), 257.9 µg/mL.
Take `CNC[C@H](O)c1ccc(O)c(O)c1` [compound 29, Epinephrine]: in data set [2], the Dissolved amount is 2001.7 µg/mL and 2061.7 µg/mL and 2129.3 µg/mL and 2102.5 µg/mL.
